Holding throughout (assay): SelectScreen Kinase Profiling, single point inhibition and IC50 for off-target kinases
Format in all cases: biochemical

In experiment [1] the target is T1, off-target kinases (Homo sapiens, UniProt Q92630).
T1 sequence (Q92630 1-601): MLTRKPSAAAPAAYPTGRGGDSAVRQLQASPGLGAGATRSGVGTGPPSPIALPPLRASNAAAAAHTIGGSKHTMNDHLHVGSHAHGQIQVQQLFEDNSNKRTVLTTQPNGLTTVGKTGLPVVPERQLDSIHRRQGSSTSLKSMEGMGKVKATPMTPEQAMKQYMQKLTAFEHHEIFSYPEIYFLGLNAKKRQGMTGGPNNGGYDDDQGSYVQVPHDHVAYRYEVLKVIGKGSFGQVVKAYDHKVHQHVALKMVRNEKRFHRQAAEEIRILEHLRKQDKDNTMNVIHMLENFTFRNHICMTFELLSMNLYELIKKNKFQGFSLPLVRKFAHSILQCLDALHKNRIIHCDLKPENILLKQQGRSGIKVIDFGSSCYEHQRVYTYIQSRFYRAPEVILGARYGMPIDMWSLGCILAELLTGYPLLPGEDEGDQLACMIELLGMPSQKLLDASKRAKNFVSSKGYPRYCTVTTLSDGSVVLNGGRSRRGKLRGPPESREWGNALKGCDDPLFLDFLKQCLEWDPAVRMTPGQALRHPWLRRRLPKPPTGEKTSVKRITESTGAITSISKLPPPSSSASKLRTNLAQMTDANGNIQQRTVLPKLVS
The following applies: DYRK2, LanthaScreen Binding.

The target of experiment [2] is off-target kinases (Homo sapiens, UniProt P07948). The following applies: LYN A, ATP Km app, ZLYTE.
The target in experiment [3] is T2, off-target kinases (Homo sapiens, UniProt Q8TDC3).
T2 sequence (Q8TDC3 1-778): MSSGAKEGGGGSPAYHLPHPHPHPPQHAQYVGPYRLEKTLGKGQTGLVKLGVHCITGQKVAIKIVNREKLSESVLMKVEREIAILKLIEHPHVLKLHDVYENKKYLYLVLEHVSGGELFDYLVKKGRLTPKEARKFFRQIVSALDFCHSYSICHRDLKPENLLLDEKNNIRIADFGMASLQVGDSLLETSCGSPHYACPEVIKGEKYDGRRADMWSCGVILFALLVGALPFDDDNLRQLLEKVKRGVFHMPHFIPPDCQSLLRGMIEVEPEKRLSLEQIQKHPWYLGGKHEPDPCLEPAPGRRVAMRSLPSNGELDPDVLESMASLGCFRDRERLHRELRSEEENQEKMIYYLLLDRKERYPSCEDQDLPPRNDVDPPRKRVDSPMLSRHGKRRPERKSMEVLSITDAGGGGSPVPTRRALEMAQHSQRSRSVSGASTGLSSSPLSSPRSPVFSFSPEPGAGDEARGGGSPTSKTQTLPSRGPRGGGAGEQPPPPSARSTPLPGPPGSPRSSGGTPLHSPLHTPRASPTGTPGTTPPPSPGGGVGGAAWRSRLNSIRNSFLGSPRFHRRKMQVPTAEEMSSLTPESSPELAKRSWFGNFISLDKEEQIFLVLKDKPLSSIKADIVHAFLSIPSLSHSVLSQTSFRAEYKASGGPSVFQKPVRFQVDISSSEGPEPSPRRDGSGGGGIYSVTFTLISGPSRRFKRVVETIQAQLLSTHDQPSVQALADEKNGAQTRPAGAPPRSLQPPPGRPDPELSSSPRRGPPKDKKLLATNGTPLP
Conditions: BRSK1 (SAD1), ATP Km app, ZLYTE.

The target in experiment [4] is off-target kinases (Homo sapiens, UniProt P00533, L858R/T790M). Conditions: EGFR (ErbB1) T790M L858R, mutant y, ZLYTE, ATP Km app.
The target of experiment [5] is off-target kinases (Homo sapiens, UniProt O43293). Conditions: DAPK3 (ZIPK), ATP Km app, ZLYTE.

The text below walks through data of patent US11572590B2, “Methods for evaluating tumor cell spheroids using 3D microfluidic cell culture device” (Dana-Farber Cancer Institute, Inc., priority 2017, dated 2023).

Like-named read-outs stand apart in the source and are kept apart here.

Sequence of off-target kinases (Homo sapiens, UniProt P00533, L858R/T790M) (P00533 25-1210 T790M/L858R): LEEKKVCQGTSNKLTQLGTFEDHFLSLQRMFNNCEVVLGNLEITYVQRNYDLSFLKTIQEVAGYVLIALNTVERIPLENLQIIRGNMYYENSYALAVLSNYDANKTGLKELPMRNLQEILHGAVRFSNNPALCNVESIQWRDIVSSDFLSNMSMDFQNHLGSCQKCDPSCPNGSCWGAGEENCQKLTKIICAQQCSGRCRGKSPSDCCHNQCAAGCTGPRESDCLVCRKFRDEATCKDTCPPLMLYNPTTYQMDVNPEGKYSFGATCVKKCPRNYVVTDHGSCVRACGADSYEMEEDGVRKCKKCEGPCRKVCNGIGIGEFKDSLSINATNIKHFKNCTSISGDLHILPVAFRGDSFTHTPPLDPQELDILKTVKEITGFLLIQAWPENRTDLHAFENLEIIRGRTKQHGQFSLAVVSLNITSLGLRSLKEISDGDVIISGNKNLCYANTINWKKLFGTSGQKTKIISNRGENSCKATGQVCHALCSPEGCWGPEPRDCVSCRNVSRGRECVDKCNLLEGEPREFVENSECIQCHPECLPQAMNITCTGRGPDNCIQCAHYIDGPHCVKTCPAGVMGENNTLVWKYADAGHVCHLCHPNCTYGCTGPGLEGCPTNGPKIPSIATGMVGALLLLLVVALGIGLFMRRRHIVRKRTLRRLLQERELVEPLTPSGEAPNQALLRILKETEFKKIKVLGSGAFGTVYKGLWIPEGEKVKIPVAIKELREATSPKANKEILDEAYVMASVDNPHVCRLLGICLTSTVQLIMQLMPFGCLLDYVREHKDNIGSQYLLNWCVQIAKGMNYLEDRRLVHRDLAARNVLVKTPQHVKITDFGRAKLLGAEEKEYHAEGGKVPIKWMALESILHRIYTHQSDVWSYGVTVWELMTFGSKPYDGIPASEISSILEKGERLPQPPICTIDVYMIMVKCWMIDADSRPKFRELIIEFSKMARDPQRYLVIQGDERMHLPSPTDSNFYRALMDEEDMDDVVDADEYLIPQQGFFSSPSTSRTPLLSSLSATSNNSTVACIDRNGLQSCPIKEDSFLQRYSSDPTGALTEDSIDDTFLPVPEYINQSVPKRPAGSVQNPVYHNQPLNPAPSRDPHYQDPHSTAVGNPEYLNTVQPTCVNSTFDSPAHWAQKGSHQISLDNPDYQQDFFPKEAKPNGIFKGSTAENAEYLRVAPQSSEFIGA
Sequence of off-target kinases (Homo sapiens, UniProt P07948) (P07948 whole entry): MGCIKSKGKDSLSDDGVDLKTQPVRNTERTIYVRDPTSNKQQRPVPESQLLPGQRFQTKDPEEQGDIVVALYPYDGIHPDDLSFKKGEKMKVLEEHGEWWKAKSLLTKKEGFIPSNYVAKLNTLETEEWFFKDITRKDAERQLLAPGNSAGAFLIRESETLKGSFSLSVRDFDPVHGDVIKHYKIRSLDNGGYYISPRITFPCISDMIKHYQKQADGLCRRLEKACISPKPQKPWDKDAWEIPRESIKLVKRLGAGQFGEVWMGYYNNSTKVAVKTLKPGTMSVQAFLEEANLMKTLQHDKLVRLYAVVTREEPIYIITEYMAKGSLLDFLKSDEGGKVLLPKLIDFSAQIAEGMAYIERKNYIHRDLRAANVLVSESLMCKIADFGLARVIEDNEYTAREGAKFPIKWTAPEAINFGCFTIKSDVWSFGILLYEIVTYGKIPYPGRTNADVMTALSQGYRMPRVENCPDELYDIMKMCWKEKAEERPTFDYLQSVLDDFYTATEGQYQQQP
Sequence of off-target kinases (Homo sapiens, UniProt O43293) (O43293 whole entry): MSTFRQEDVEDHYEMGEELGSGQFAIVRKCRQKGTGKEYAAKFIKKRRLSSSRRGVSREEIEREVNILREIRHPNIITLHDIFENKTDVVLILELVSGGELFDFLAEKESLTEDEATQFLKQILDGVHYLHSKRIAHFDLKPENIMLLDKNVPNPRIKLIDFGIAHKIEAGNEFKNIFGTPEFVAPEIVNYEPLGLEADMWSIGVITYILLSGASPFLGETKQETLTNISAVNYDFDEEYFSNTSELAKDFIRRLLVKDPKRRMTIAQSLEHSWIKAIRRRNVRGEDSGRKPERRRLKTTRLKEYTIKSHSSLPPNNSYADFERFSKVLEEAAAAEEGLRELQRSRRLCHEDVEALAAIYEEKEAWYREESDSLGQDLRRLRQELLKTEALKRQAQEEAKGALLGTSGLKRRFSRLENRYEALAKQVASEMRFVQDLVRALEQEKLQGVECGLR

As for `N#Cc1cc(-c2ncnc(Nc3ccc(N4CCN(C5COC5)CC4)cc3)n2)ccc1OC1CCOCC1` [Compound 1, 5-(4-((4-(4-(oxetan-3-yl)piperazin-1-yl)phenyl)amino)-1,3,5-triazin-2-yl)-2-((tetrahydro-2H-pyran-4-yl)oxy)benzonitrile], the inhibition on off-target kinases [1] (read-out: % Inhibition 1) came to 54%; on off-target kinases [1] (read-out: % Inhibition 2) it was 53%; on off-target kinases [1] (read-out: % Inhibition Avg), 54%; on off-target kinases [2] (read-out: % Inhibition 1), 48%; on off-target kinases [2] (read-out: % Inhibition 2), 48%; on off-target kinases [2] (read-out: % Inhibition Avg), 48%. Further, the inhibition at off-target kinases [3] (read-out: % Inhibition 1) worked out at 92%; on off-target kinases [3] (read-out: % Inhibition 2), 89%; at off-target kinases [3] (read-out: % Inhibition Avg), 90%; on off-target kinases [4] (read-out: % Inhibition 1) it was 34%; on off-target kinases [4] (read-out: % Inhibition 2), 29%; at off-target kinases [4] (read-out: % Inhibition Avg) it was 31%. In addition, the inhibition on off-target kinases [5] (read-out: % Inhibition 1) worked out at 52%; at off-target kinases [5] (read-out: % Inhibition 2) it was 49%; at off-target kinases [5] (read-out: % Inhibition Avg), 51%.

In general, inhibition refers to the relative decrease from the control value, in per cent.
